Reference: patent US20230374113A1, “FERRITIN NANOCAGE FUSED WITH PD-L1-BINDING PEPTIDE 1 AND USE THEREOF AS ANTICANCER IMMUNOTHERAPY AGENT” (KYUNGPOOK NATIONAL UNIVERSITY INDUSTRY-ACADEMIC COOPERATION …, priority 2020, published 2023)

Assays:
[1] = test system: CD8+ T cells cocultured with GL26; assay: Triple coculture of CD8+ T cells with GL26 glioma cells and primary glia; assay type: cell-based, mouse; settings: 25 nM, 48 h triple coculture, IFN-γ secretion, CD107a
Method: (§1) CD8^+ T cells were directly cocultured with CT-2A (A,B) or GL26 (C, D) glioma cells in the presence of glia. Cocultures were treated with 25 nM wild-type nanocage (wFTH), PD-L1pep1 ferritin nanocage (PpNF) or their corresponding buffer (buf), respectively. Fold changes in IFN-γ secretion during triple coculture using (A) CT-2A or (C) GL26 cells with the indicated treatments. T cell-only group was used as a control. (B) Proliferation of CD8^+ T cells during coculture with CT-2A and primary glia. The percentages of daughter cells upon cell division were determined using CellTrace Violet (CTV) dye. (D) Expression of CD107a on the surface of CD8^+ T cells after triple coculture using GL26. The percentages of CD107a^+ populations in live CD8^+ T cells were measured by flow cytometry. All graphs represent mean±SD; n=3 independent wells. (*p<0.05, **p<0.01, ***p<0.001, and ****p<0.0001; multiple comparisons were conducted using one-way ANOVA followed by Tukey's test.)
Primary glia were cultured from C57BL/6 mice, and the cells were seeded in a 96-well flat bottom plate at a density of 10^4 cells/well. […]
(§2) Cocultures were treated with 25 nM ferritin nanocages (PpNF or Pp2NF) including the wild-type nanocage (wFTH) or their corresponding buffer, respectively. […] IFN-γ concentrations were quantified with a mouse IFN-γ ELISA kit (R&D Systems Inc., SMIF00) as previously described. […]

GL26 glioblastoma = settings: mouse, in vivo
Method: In addition, the glioblastoma targeting effect of the immune checkpoint blocking nanocage was identified. GL26, a glioblastoma cell line, was injected into the left side of the mouse brain to create an orthotopic GBM model and fluorescently labeled PBP1-N-FtH was injected into the tail vein [control: saline, ferritin].

[2] = test system: GL26 cells overexpressing PD-L1; assay: In vitro binding to GL26 glioma cells; assay type: cell-based, mouse; settings: 4° C., 1 h; compared to wFTH
Method: (§3) Mouse glioma cells, CT-2A or GL26 cells, were treated with PpNF or wild-type ferritin (wFTH) at 4° C. for 1 h; binding was monitored by antiferritin antibody (green). Nuclei were visualized by counterstaining with DAPI (blue). Scale bars: 30 μm.

[3] = test system: MDA-MB231 cells expressing PD-L1; assay: Culture cell binding assay (confocal) on MDA-MB231 cells; assay type: cell-based; settings: 100 nM, 4° C., 1 hour; anti-human ferritin heavy chain antibody staining
Method: (§4) Confocal laser scanning microscopy (Confocal) was performed. After culturing triple negative breast cancer cells (MDA-MB 231) or colorectal cancer cells (CT26), a group treated with 25 ng/ml of interferon-γ and a group without treatment were cultured at 37° C. for 24 hours. These cells are cancer cells expressing the PD-L1 receptor and are known to have expression increased upon interferon-γ treatment. […] In order to block nonspecific binding of PD-L1 proteins, blocking was performed using 1% BSA dissolved in PBS at room temperature for 1 hour, then BSA was removed, and PpNF, PpLF, and PpCF (100 nM) were reacted at 4° C. for 1 hour. After washing with PBS, a reaction was performed using anti-human ferritin heavy chain antibodies (1:200 ratio) for 1 hour, followed by staining (green). After fixing with 4% paraformaldehyde, observation was performed under a confocal microscope. To observe the nucleus, DAPI was dissolved in PBS in a ratio of 1:1000, and staining was performed at room temperature for 5-10 minutes (blue).

[4] = Biotoxicity via blood and serologic analysis; assay type: in vivo, mice
Method: After antitumor animal experiments, blood and serum were collected from each group when sacrificing mice, and the amounts of red blood cells, hemoglobin, hematocrit, white blood cells, and neutrophils in the blood, blood urea nitrogen in serum, creatinine, alanine aminotransferase, and aspartate aminotransferase were measured and compared.

PD-1/PD-L1 binding = molecular target: T1, PD-1/PD-L1 binding (Mus musculus, UniProt Q9EP73); assay: Co-culture of CT26 cancer cells and activated CD8+ T cells (immune checkpoint inhibitory function in vitro); assay type: cell-based
T1 construct: endogenous in cells
Method: CD8^+ T cells were extracted from the spleen obtained by sacrificing BALB/C mice. Extracted CD8^+ T cells were treated with interleukin-2/interleukin-15 and anti-CD-3 antibody/anti-CD-28 antibody each for 24 hours for activation. Prior to treating activated CD8^+ T cells with CFSE and performing symbiotic culture of tumor cells (CT26, mouse colon cancer), tumor cells were pretreated with anti-PD-L1 antibody, PpNF (25 nM or 50 nM), and PD-L1pep1 (50 nM), respectively, and interactions of PD-L1 of tumor cells and […] CD8^+ T cells were inhibited, respectively. After symbiotic culture for 24 hours, CD8^+ T cells were isolated (FIG. 4A). The degree of CFSE binding to isolated T cells was measured with a flow cytometer (FIG. 4B). In addition, the amount of interferon gamma secreted by isolated T cells was measured using an enzyme-linked immunosorbent assay (FIG. 4C).
CD8^+ T cells isolated from mice were activated (IL-2/IL-15 treatment and anti-CD3/anti-CD28 treatment), labeled with fluorescence (CFSE staining), and cultured with CT26 colorectal cancer cells.

[5] = test system: CT26 cells expressing PD-L1; assay: Culture cell binding assay (confocal) on CT26 cells; assay type: cell-based, mouse; settings: 100 nM, 4° C., 1 hour; anti-human ferritin heavy chain antibody staining
Method: as §4

CT-2A glioma [6] = test system: CT-2A glioma; design: species or system C57BL/6 mice; settings: mouse, in vivo, iv
Method: (A) Representative images of the upper body of mice. The yellow circle indicates the tumor. C57BL/6 mice were implanted with CT-2A glioma cells (3×10^5). At 14 days after intracranial inoculation, the tumor-bearing mice were intravenously injected with Flamma 675-labeled PpNF or wFTH followed by in vivo scanning with the IVIS imaging system. (B) Ex vivo biodistribution was examined at 24 h postinjection.
B6 mice aged 6-8 weeks were anesthetized with an intraperitoneal injection of Zoletil 50 (20 mg/kg, Virba) and Rompun (4 mg/kg, Bayer). For stereotactic intracranial injections of CT-2A cells, the surgical site was shaved and prepared with 70% ethyl alcohol. After disinfection and incision of the skin, tumor cells were stereotaxically implanted in the brain using the following coordinates: AP=+0.2 mm; ML=+2 mm; DV=−3 mm from the bregma. CT-2A cells (10^4 cells) were resuspended in 3 μl of PBS and implanted at an infusion rate of 3 μl/5 min.
For in vivo targeting of PD-L1pep ferritin nanocages in intracranial brain tumors, CT-2A cells (3×10^5 cells) were resuspended in 3 μl of PBS and implanted in the brain. At 14 days after implantation of CT-2A cells, Flamma 675-labeled Pp1NF, Pp2NF, and wt ferritin were intravenously injected (n=3 mice/group). […] Fluorescence emission values were analyzed as photons per second per centimeter squared per steradian (p/s/cm^2/sr).

[7] = test system: MCF-7 cells that do not express PD-L1; assay: Culture cell binding assay (confocal) on MCF-7 control cells; assay type: cell-based; settings: 100 nM, 4° C., 1 hour; PD-L1-negative control cells
[8] = Dynamic light scattering (DLS) analysis of cage size; assay type: physicochemical
[9] = test system: CD8+ T cells cocultured with CT-2A; assay: Triple coculture of CD8+ T cells with CT-2A glioma cells and primary glia; assay type: cell-based, mouse; settings: 25 nM, 48 h triple coculture
Method: as §1, with “(*p<0.05, **p<0.01, ***p<0.001, and ****p<0.0001; multiple comparisons were conducted using one-way ANOVA followed by Tukey's test.)” left out
as §2
Annexin-V as described above. The percentages of CTV dilution upon cell division were measured by flow cytometry. All flow cytometry data were obtained using a BD FACS Verse cytometer and analyzed by FlowJo software (Tree Star).

[10] = test system: CT-2A cells overexpressing PD-L1; assay: In vitro binding to CT-2A glioma cells; assay type: cell-based, mouse; settings: 4° C., 1 h; compared to wFTH
Method: as §3

CT26 tumor = assay type: in vivo, BALB/c wildtype mice
Method: CT26 cells were injected subcutaneously into the upper right thigh of BALB/c wildtype mice. When the tumor was about 100 mm^3 in size, mice were randomly divided into four groups. […] A total of 10 injections were performed once every two days (once every 4 days, repeated 6 times in total for anti-PD-L1 antibodies) to measure tumor size and weight of mice (FIGS. 7B and 7D). After 3 weeks, the tumor was removed by sacrificing mice and the tumor was weighed (FIG. 7C). The extracellular matrix of the removed tumor was degraded with collagenase to form single cells, and antibodies against labeled proteins of CD4^+ T cells, CD8^+ T cells, and regulatory T cells were each treated to analyze how many T cells are each present in the tumor by flow cytometry (FIGS. 7E to 7G).

CT-2A glioma [11] = assay: Antitumor activity in orthotopic CT-2A glioma mouse model; assay type: in vivo, C57BL/6 mice; settings: 5 mg/kg intravenously three times per week, six injections
Method: (A) Experimental scheme for antitumor treatments. CT-2A syngeneic mouse brain tumor cells were implanted into the brains of C57BL/6 mice. Treatments were initiated at 7 days after confirming tumor growth by MRI. PpNF (5 mg/kg, n=3) or wFTH (5 mg/kg, n=3) were intravenously injected three times per week. (B) Representative brain MRI images showing tumor growth at 7, 14, and 21 days. The dotted line indicates the tumor region. (C) Tumor volumes measured by MRI. (D) Body weights. Data represent mean±SEM (*p<0.05; t-test). The data presented are representative of three independent experiments. B6 mice aged 6-8 weeks were anesthetized with an intraperitoneal injection of Zoletil 50 (20 mg/kg, Virba) and Rompun (4 mg/kg, Bayer). For stereotactic intracranial injections of CT-2A cells, the surgical site was shaved and prepared with 70% ethyl alcohol. After disinfection and incision of the skin, tumor cells were stereotaxically implanted in the brain using the following coordinates: AP=+0.2 mm; ML=+2 mm; DV=−3 mm from the bregma. CT-2A cells (10^4 cells) were resuspended in 3 μl of PBS and implanted at an infusion rate of 3 μl/5 min. […] Tumor growth was examined by animal MRI (7T BioSpec 70/20USR) in the tumor-bearing mice using Onis 2.5 viewer software, and tumor volume was calculated (Average tumor cross-sectional area (mm^2)×summed thickness of tumor cross-sections (mm).

T1 sequence (Q9EP73 19-290): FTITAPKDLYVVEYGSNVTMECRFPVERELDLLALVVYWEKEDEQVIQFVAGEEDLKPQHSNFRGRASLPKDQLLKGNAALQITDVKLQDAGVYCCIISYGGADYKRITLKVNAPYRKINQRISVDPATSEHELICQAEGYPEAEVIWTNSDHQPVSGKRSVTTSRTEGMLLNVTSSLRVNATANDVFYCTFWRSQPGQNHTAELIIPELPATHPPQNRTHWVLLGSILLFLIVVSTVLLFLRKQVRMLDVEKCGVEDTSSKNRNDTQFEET

IFN-γ secreted by T cells (ELISA) (PD-1/PD-L1 binding; 24 hours co-culture, PpNF 25 nM or 50 nM): IFN-γ increment
Substance: PpNF: Ferritin nanocage: PD-L1-binding peptide 1 (CLQKTPKQC) inserted at nitrogen terminal of human ferritin heavy chain fragment (1-161) with GG linker
activity of CD8+ T cells [1]: increased
glioblastoma targeting (brain fluorescence signal) (GL26 glioblastoma): targeted to the tumor site on the left side of the brain
binding in GL26 glioma cells [2]: bound specifically
binding in MDA-MB231 cells [3]: bound
hematologic change ([4]; blood after antitumor animal experiments): no significant hematologic change
hepatotoxicity or nephrotoxicity (BUN, creatinine, ALT, AST) ([4]; serum after antitumor animal experiments): No hepatotoxicity or nephrotoxicity was observed
immune checkpoint inhibitory effect versus comparators (PD-1/PD-L1 binding; versus PD-L1 antibody, PD-L1pep1 (50 nM)): better than that of PD-L1 antibody or PD-L1pep1
binding in CT26 cells [5]: bound
BBB crossing (CT-2A glioma [6]): crossed the BBB
accumulation in glioblastoma in the brain (CT-2A glioma [6]): accumulated in glioblastoma expressed in the brain by 24 hours
binding in MCF-7 cells [7]: the binding did not take place
cage size (DLS) [8]: about 24 nm
proliferation of CD8+ T cells ([9]; CTV dye): increased
activity of CD8+ T cells ([9]; IFN-γ secretion): increased
binding in CT-2A glioma cells [10]: bound specifically
tumor growth (CT26 tumor; 10 mg/kg tail vein, 10 injections once every two days): significantly inhibited tumor growth compared to the control
weight of the tumor (CT26 tumor; after 3 weeks): much smaller
proportion of CD8+ T cells in the tumor (CT26 tumor; flow cytometry): increasing the proportion of CD8^+ T cells in the tumor
ratio of CD8+ T cells and regulatory T cells in the tumor (CT26 tumor; flow cytometry): significantly increased compared to the control
antitumor effects (tumor volume by MRI) (CT-2A glioma [11]): showed antitumor effects
